The OligoGym collection
Where “and” joins values, the source holds several entries; their conditions need not be identical. Identical values can stand only once. After the bases stand the sugars from the 5' end (letter, count) and the backbone: PS all phosphorothioate, else s phosphorothioate and o phosphodiester by linkage. Methylation of C is not given here. e = 2'-O-(2-methoxyethyl) (MOE); k = constrained ethyl (cEt); d = 2'-deoxy (DNA)

Target: IRF4
Conditions: ASO

GCCCATGTGAGCTCTT (sugars k3 d10 k3, PS)
target mRNA inhibition (SK-MEL-28, 4 µM): 50%

GCCCGGGAGAGCGGAG (sugars k3 d10 k3, PS)
target mRNA inhibition (MM.1R, 1 µM): -32%

GCCGAACTCTCCGCCT (sugars k3 d10 k3, PS)
target mRNA inhibition (SK-MEL-28, 4 µM): 51%

GCCGAAGTCAACAGGA (sugars k3 d10 k3, PS)
target mRNA inhibition (MM.1R, 1 µM): -17%

GCCTTCTCGGAACTTT (sugars k3 d10 k3, PS)
target mRNA inhibition (SK-MEL-28, 4 µM): 32%

GCGAATGTGCCTTGTG (sugars k3 d10 k3, PS)
target mRNA inhibition (MM.1R, 1 µM): 12%

GCGACTGCTGAAAACC (sugars k3 d10 k3, PS)
target mRNA inhibition (MM.1R, 1 µM): -4%

GCGCACTAAGTGGGCT (sugars k3 d10 k3, PS)
target mRNA inhibition (SK-MEL-28, 4 µM): -10%

GCGCATCCCCTGGGCG (sugars k3 d10 k3, PS)
target mRNA inhibition (SK-MEL-28, 4 µM): -4%

GCGCCCAATCACCTTC (sugars k3 d10 k3, PS)
target mRNA inhibition (SK-MEL-28, 4 µM): 3%

GCGCGGAGGACCTCGC (sugars k3 d10 k3, PS)
target mRNA inhibition (SK-MEL-28, 4 µM): 10%

GCGGAGGACCTCGCCT (sugars k3 d10 k3, PS)
target mRNA inhibition (SK-MEL-28, 4 µM): 8%

GCTAAACCTGGCACCA (sugars k3 d10 k3, PS)
target mRNA inhibition (MM.1R, 1 µM): 7%

GCTAAAGGAGTGCAGG (sugars k3 d10 k3, PS)
target mRNA inhibition (SK-MEL-28, 4 µM): 7%

GCTAGAACATGATGAG (sugars k3 d10 k3, PS)
target mRNA inhibition (SK-MEL-28, 4 µM): 14%

GCTCAACCTGGAAGGA (sugars k3 d10 k3, PS)
target mRNA inhibition (SK-MEL-28, 4 µM): 25%

GCTCAATAATCTCCCA (sugars k3 d10 k3, PS)
target mRNA inhibition (MM.1R, 1 µM): 0%

GCTCAGAATGAAGTTA (sugars k3 d10 k3, PS)
target mRNA inhibition (SK-MEL-28, 4 µM): 48%

GCTCCACAGCAAGGCC (sugars k3 d10 k3, PS)
target mRNA inhibition (SK-MEL-28, 4 µM): 58%

GCTCGGAGCGACCCAA (sugars k3 d10 k3, PS)
target mRNA inhibition (SK-MEL-28, 4 µM): 8%

GCTGAAACGGTCAGCA (sugars k3 d10 k3, PS)
target mRNA inhibition (MM.1R, 1 µM): 8%

GCTGAACCCCACAGGA (sugars k3 d10 k3, PS)
target mRNA inhibition (MM.1R, 1 µM): 0%

GCTGAATTGTCATGAA (sugars k3 d10 k3, PS)
target mRNA inhibition (SK-MEL-28, 4 µM): 36%

GCTGAGATAAGAAGCA (sugars k3 d10 k3, PS)
target mRNA inhibition (SK-MEL-28, 4 µM): 32%

GCTGAGATAGGAAGCA (sugars k3 d10 k3, PS)
target mRNA inhibition (SK-MEL-28, 4 µM): 19%

GCTGTGTGTCAAAGAG (sugars k3 d10 k3, PS)
target mRNA inhibition (SK-MEL-28, 4 µM): 6%

GCTTACAAAAACTTGG (sugars k3 d10 k3, PS)
target mRNA inhibition (SK-MEL-28, 4 µM): 26%

GCTTACTGTGATTCTG (sugars k3 d10 k3, PS)
target mRNA inhibition (SK-MEL-28, 4 µM): 34%

GCTTCAAGACAGGTCT (sugars k3 d10 k3, PS)
target mRNA inhibition (MM.1R, 1 µM): 29%

GGAAAGACAAGTGCCC (sugars k3 d10 k3, PS)
target mRNA inhibition (SK-MEL-28, 4 µM): 54%

GGAAATTCAAGCTTTC (sugars k3 d10 k3, PS)
target mRNA inhibition (SK-MEL-28, 4 µM): 64%

GGAACAAAAGGTTCCC (sugars k3 d10 k3, PS)
target mRNA inhibition (SK-MEL-28, 4 µM): 12%

GGAACTAGTCGACAGC (sugars k3 d10 k3, PS)
target mRNA inhibition (MM.1R, 1 µM): 18%

GGAAGCACTGGCATCG (sugars k3 d10 k3, PS)
target mRNA inhibition (SK-MEL-28, 4 µM): 55%

GGAATGGCGGATAGAT (sugars k3 d10 k3, PS)
target mRNA inhibition (SK-MEL-28, 4 µM): 33%

GGAATTTCCATTGGAG (sugars k3 d10 k3, PS)
target mRNA inhibition (SK-MEL-28, 4 µM): 44%

GGACAATGGAGATACT (sugars k3 d10 k3, PS)
target mRNA inhibition (MM.1R, 1 µM): 3%

GGACACCACCTCGAGG (sugars k3 d10 k3, PS)
target mRNA inhibition (MM.1R, 1 µM): 1%

GGACAGACCAGGATTC (sugars k3 d10 k3, PS)
target mRNA inhibition (SK-MEL-28, 4 µM): 25%

GGACGCACGGAGAGGG (sugars k3 d10 k3, PS)
target mRNA inhibition (MM.1R, 1 µM): 15%

GGAGAATTTGGGCTGG (sugars k3 d10 k3, PS)
target mRNA inhibition (SK-MEL-28, 4 µM): 75%

GGAGAGCGGAGGCGGG (sugars k3 d10 k3, PS)
target mRNA inhibition (SK-MEL-28, 4 µM): 21%

GGAGGATCATAAAGGA (sugars k3 d10 k3, PS)
target mRNA inhibition (MM.1R, 1 µM): 32%

GGATAATATACCCCAA (sugars k3 d10 k3, PS)
target mRNA inhibition (SK-MEL-28, 4 µM): 64%

GGCAAGCTGAATGCTC (sugars k3 d10 k3, PS)
target mRNA inhibition (SK-MEL-28, 4 µM): 29%

GGCAATGGAGTCTCGC (sugars k3 d10 k3, PS)
target mRNA inhibition (SK-MEL-28, 4 µM): 50%

GGCACATCAATGTTTT (sugars kkdddddddddekeke, PS)
target mRNA inhibition (MM.1R, 1 µM): 22% and 26%

GGCACGAGGAAGCATA (sugars k3 d10 k3, PS)
target mRNA inhibition (SK-MEL-28, 4 µM): 62%

GGCAGTGGAGCTCCAC (sugars k3 d10 k3, PS)
target mRNA inhibition (SK-MEL-28, 4 µM): 73%

GGCCAAATTGCAAAGG (sugars k3 d10 k3, PS)
target mRNA inhibition (SK-MEL-28, 4 µM): 48%

GGCCACATTAGCAATT (sugars k3 d10 k3, PS)
target mRNA inhibition (MM.1R, 1 µM): 0%

GGCCATTCGAGGTGAT (sugars k3 d10 k3, PS)
target mRNA inhibition (MM.1R, 1 µM): 1%

GGCCCGGGCGCATCCC (sugars k3 d10 k3, PS)
target mRNA inhibition (SK-MEL-28, 4 µM): 5%

GGCCGGAGACCTTGAA (sugars k3 d10 k3, PS)
target mRNA inhibition (SK-MEL-28, 4 µM): 3%

GGCCTCCCGCTTGTGG (sugars k3 d10 k3, PS)
target mRNA inhibition (SK-MEL-28, 4 µM): -18%

GGCCTTAGCCTTCCTG (sugars k3 d10 k3, PS)
target mRNA inhibition (SK-MEL-28, 4 µM): 17%

GGCCTTGCCAGTGGTG (sugars k3 d10 k3, PS)
target mRNA inhibition (SK-MEL-28, 4 µM): -12%

GGCCTTGCCAGTGGTG (sugars k4 d8 k4, PS)
target mRNA inhibition (SK-MEL-28, 4 µM): 6%

GGCGACGACAGCTGCG (sugars k3 d10 k3, PS)
target mRNA inhibition (MM.1R, 1 µM): -15%
